{"source": "patent US12527800B2", "about": "“Therapeutic agent for Parkinson's disease” (KYOWA KIRIN CO., LTD., priority 2019, dated 2026)", "tested_on": "patients of Parkinson's disease experiencing motor fluctuations", "experiment": "Multivariate logistic regression analysis of patient baseline factors associated with efficacy of istradefylline (odds ratios)", "assay_type": "in vivo, human", "procedure": "The cut-off value for the treatment effect used to determine the efficacy of istradefylline was defined as a reduction in OFF time (1 hour or longer), an increase in ON time without troublesome dyskinesia (1 hour or longer), and an improvement in UPDRS Part III score (3 points or more) from the clinically meaningful point of view. […] Further, with respect to the UPDRS Part II score at OFF state, an improvement of 1 point or more from the sensitivity/(1-specificity) curve (ROC curve) using the UPDRS Part II score and the CGI-I score was defined as the cut-off of the effect.\nThe study of baseline factors having a favorable effect on the respective outcomes of the efficacy of istradefylline was performed by multivariate logistic regression analysis controlling for 12 baseline factors, which were expressed as the odds ratio (OR) and 95% confidence interval (CI). The efficacy outcomes included daily OFF time, ON time without troublesome dyskinesia, UPDRS Part III score at ON state, CGI-I, and UPDRS Part II score at OFF state. As covariates in the logistic regression analysis, age, sex, the presence or absence of dyskinesia history (determined based on the patient diary at baseline), mean daily OFF time, total UPDRS Part III score, mH&Y score at ON state and OFF state, concomitant drugs, duration of Parkinson's disease (duration of PD), duration of motor complications, L-DOPA dose, and levodopa-equivalent dose were used.\nIn this study, with respect to the outcomes under the treatment with istradefylline, analysis of baseline factors associated with expressing a more favorable effect was performed according to the following three steps. First, interactions between the treatment with istradefylline (two doses: 20 mg and 40 mg) and 12 baseline factors were evaluated based on type III p-value by multivariate logistic regression analysis (an index for evaluating whether or not the heterogeneity (interaction) occurs in the association between the treatment and the outcome due to a certain baseline factor). As the second step, an odds ratio (OR) was estimated for the baseline factor associated with the achievement of a more favorable effect according to the dose group of istradefylline if a significant interaction is observed between the treatment with istradefylline and the baseline factor. In addition, OR was estimated for the baseline factor associated with the achievement of a more favorable effect in all patient groups if an interaction is not observed between the treatment with istradefylline and the baseline factor.\nA two-tailed p value <0.05 and an interaction p value <0.10 were determined to be statistically significant. All analyses were performed using SAS software version 9.2 or 9.3 (SAS Institute, Inc., Cary, N.C., USA).", "key": {"[1]": {"details": "age ≥65 vs <65 y (ref), 20 and 40 mg/day together"}, "[2]": {"details": "baseline UPDRS Part III score ≥20 vs <20 (ref), 20 and 40 mg/day together"}, "[3]": {"details": "baseline m Hoehn & Yahr scale at OFF state ≥3 vs <3 (ref), 20 and 40 mg/day together"}, "[4]": {"details": "baseline mean daily OFF time 4 to <8 h vs <4 h (ref), 20 mg/day"}, "[5]": {"details": "baseline mean daily OFF time 4 to <8 h vs <4 h (ref), 40 mg/day"}, "[6]": {"details": "baseline mean daily OFF time 4 to <8 h vs <4 h (ref), 20 and 40 mg/day together"}, "[7]": {"details": "baseline mean daily OFF time ≥8 h vs <4 h (ref), 20 mg/day"}, "[8]": {"details": "baseline mean daily OFF time ≥8 h vs <4 h (ref), 40 mg/day"}, "[9]": {"details": "baseline mean daily OFF time ≥8 h vs <4 h (ref), 20 and 40 mg/day together"}}, "data": [{"smiles": "CCn1c(=O)c2c(nc(/C=C/c3ccc(OC)c(OC)c3)n2C)n(CC)c1=O", "note": "[istradefylline]", "values": [{"measurement": "Odds ratio, increase in ON time without troublesome dyskinesia (1 hour or longer)", "setting": "age ≥65 vs <65 y (ref), 20 mg/day", "result": 1.47}, {"measurement": "Odds ratio, increase in ON time without troublesome dyskinesia (1 hour or longer)", "setting": "age ≥65 vs <65 y (ref), 40 mg/day", "result": 2.88}, {"measurement": "Odds ratio, OFF time reduction (1 hour or longer)", "setting": "[1]", "result": 2.65}, {"measurement": "Odds ratio, improvement in CGI-I (very much, much or minimally improved)", "setting": "[1]", "result": 1.17}, {"measurement": "Odds ratio, improvement in UPDRS Part II score (OFF)", "setting": "[1]", "result": 0.90}, {"measurement": "Odds ratio, improvement in UPDRS Part III score (3 points or more)", "setting": "[1]", "result": 0.65}, {"measurement": "Odds ratio, OFF time reduction (1 hour or longer)", "setting": "[2]", "result": 0.88}, {"measurement": "Odds ratio, improvement in CGI-I (very much, much or minimally improved)", "setting": "[2]", "result": 1.49}, {"measurement": "Odds ratio, improvement in UPDRS Part II score (OFF)", "setting": "[2]", "result": 0.79}, {"measurement": "Odds ratio, improvement in UPDRS Part III score (3 points or more)", "setting": "[2]", "result": 2.79}, {"measurement": "Odds ratio, increase in ON time without troublesome dyskinesia (1 hour or longer)", "setting": "[2]", "result": 0.97}, {"measurement": "Odds ratio, improvement in UPDRS Part II score (OFF)", "setting": "baseline m Hoehn & Yahr scale at OFF state ≥3 vs <3 (ref), 20 mg/day", "result": 0.99}, {"measurement": "Odds ratio, improvement in UPDRS Part II score (OFF)", "setting": "baseline m Hoehn & Yahr scale at OFF state ≥3 vs <3 (ref), 40 mg/day", "result": 3.50}, {"measurement": "Odds ratio, OFF time reduction (1 hour or longer)", "setting": "[3]", "result": 0.63}, {"measurement": "Odds ratio, improvement in CGI-I (very much, much or minimally improved)", "setting": "[3]", "result": 1.89}, {"measurement": "Odds ratio, improvement in UPDRS Part III score (3 points or more)", "setting": "[3]", "result": 1.81}, {"measurement": "Odds ratio, increase in ON time without troublesome dyskinesia (1 hour or longer)", "setting": "[3]", "result": 0.60}, {"measurement": "Odds ratio, OFF time reduction (1 hour or longer)", "setting": "[4]", "result": 1.27}, {"measurement": "Odds ratio, increase in ON time without troublesome dyskinesia (1 hour or longer)", "setting": "[4]", "result": 1.09}, {"measurement": "Odds ratio, OFF time reduction (1 hour or longer)", "setting": "[5]", "result": 1.58}, {"measurement": "Odds ratio, increase in ON time without troublesome dyskinesia (1 hour or longer)", "setting": "[5]", "result": 0.58}, {"measurement": "Odds ratio, improvement in CGI-I (very much, much or minimally improved)", "setting": "[6]", "result": 1.09}, {"measurement": "Odds ratio, improvement in UPDRS Part II score (OFF)", "setting": "[6]", "result": 1.00}, {"measurement": "Odds ratio, improvement in UPDRS Part III score (3 points or more)", "setting": "[6]", "result": 0.85}, {"measurement": "Odds ratio, OFF time reduction (1 hour or longer)", "setting": "[7]", "result": 1.57}, {"measurement": "Odds ratio, increase in ON time without troublesome dyskinesia (1 hour or longer)", "setting": "[7]", "result": 1.19}, {"measurement": "Odds ratio, OFF time reduction (1 hour or longer)", "setting": "[8]", "result": 6.68}, {"measurement": "Odds ratio, increase in ON time without troublesome dyskinesia (1 hour or longer)", "setting": "[8]", "result": 2.38}, {"measurement": "Odds ratio, improvement in CGI-I (very much, much or minimally improved)", "setting": "[9]", "result": 0.85}, {"measurement": "Odds ratio, improvement in UPDRS Part II score (OFF)", "setting": "[9]", "result": 0.98}, {"measurement": "Odds ratio, improvement in UPDRS Part III score (3 points or more)", "setting": "[9]", "result": 0.53}]}]}
